Reference: patent US20240050727A1, “DEVICES FOR FORMING IN SITU MICRONEEDLES AND METHODS THEREOF” (University of Connecticut, priority 2022, published 2024)
Entries after “also recorded” stand apart in the source; their conditions may differ.

Tested on: C. albicans
Assay: Antifungal activity in 3D culture model (C. albicans 3D fungal biofilms in CHROMagar)
Format: cell-based
Conditions: for superficial regrowth of preformed fungal biofilm: t=48 h preformed biofilm, monitored for 48 hr
Protocol: Antifungal activity. The antifungal activity was performed using an in-lab developed 3D culture model. C. Albicans was seeded at a density of 10^7 cells/mL and cultured for 48 h on CHROMagar. The 3D culture gels were treated with PBS and Caspofungin either topically or using the in-situ microneedle device and methodology. Samples were cut for in-depth imaging after 48 h of treatment and fungal inhibition was evaluated. Experiments were performed to assess the feasibility of the disclosed device in the treatment of infection. 10^6 cells/ml of C. albicans were inoculated in liquid CHROMagar™ and allowed to form 3D fungal biofilms. PBS or 32 μg/ml of Caspofungin (CPF) was applied topically and via a microneedling device immediately after the agar solidified (t=0 h) or 48 h after biofilm growth (t=48 h). The growth and distribution of C. albicans was monitored for 48 hr.

CC[C@H](C)C[C@H](C)CCCCCCCCC(=O)N[C@H]1C[C@@H](O)[C@@H](NCCN)NC(=O)[C@@H]2[C@@H](O)CCN2C(=O)[C@H]([C@H](O)CCN)NC(=O)[C@H]([C@H](O)[C@@H](O)c2ccc(O)cc2)NC(=O)[C@@H]2C[C@@H](O)CN2C(=O)[C@H]([C@@H](C)O)NC1=O [CPF, Caspofungin]
3D growth of fungal biofilm (fluorescence images of slices) (32 μg/ml CPF administered by drop): reduced the 3D growth
3D growth of fungal biofilm (fluorescence images of slices) (32 μg/ml CPF administered by microneedle system): reduced the 3D growth
superficial regrowth of preformed fungal biofilm (32 μg/ml CPF applied topically via drop): not able to regrow on the surface; also recorded: prevention of superficial growth
superficial regrowth of preformed fungal biofilm (32 μg/ml CPF applied via microneedle system): not able to regrow on the surface; also recorded: prevention of superficial growth
fungal biofilm 3D growth at t=48 h (32 μg/ml CPF, microneedling system vs drop, applied 48 h after biofilm growth): effective in reducing the fungal biofilm growth only when administered via the microneedling system; also recorded: reduced only when CPF was administered via microneedles
overall biofilm thickness and biofilm growth at depth (calcofluor fluorescence signal) (CPF, microneedle delivery): reduces the overall biofilm thickness and biofilm growth at depths lower than 1 mm
